Experimental data reported in DBAASP.
Converted amounts (≈) assume the structure as drawn. “And” between values parts separate entries of the source, which are not always exact repeats. Identical values can stand only once. One block for each compound: values may come before it.

Columns and labels:
Assay in all cases: ≥ marks a high value that may be exact or a test limit, other limits are often not marked, values filed in µg/mL are converted to µM
Escherichia coli UB1005 = system: Escherichia coli UB1005
[1] = system: Staphylococcus epidermidis ATCC 12228
[2] = system: Staphylococcus aureus ATCC 43300
[3] = system: Lacticaseibacillus rhamnosus 1.0385
[4] = system: Pseudomonas aeruginosa ATCC 27853
[5] = system: Lactiplantibacillus plantarum 8014
[6] = system: Lacticaseibacillus rhamnosus 1.0925
[7] = system: Lacticaseibacillus rhamnosus 1.0386
[8] = system: Lacticaseibacillus rhamnosus 1.0911
[9] = system: Lacticaseibacillus rhamnosus 7469
[10] = system: Escherichia coli ATCC 11229
[11] = system: Klebsiella pneumoniae ATCC 13866
[12] = system: Staphylococcus aureus ATCC 33591
[13] = system: Staphylococcus aureus ATCC 29213
[14] = system: Staphylococcus aureus ATCC 25923
[15] = system: Staphylococcus epidermidis NBRC 12993
[16] = system: Candida viswanathii NBRC 10321
[17] = system: Pseudomonas putida NBRC 100650
[18] = system: Escherichia coli NBRC 3972
[19] = system: Aspergillus oryzae NBRC 100959
[20] = system: Micrococcus luteus NBRC 3333
Micrococcus luteus A270 = system: Micrococcus luteus A270
Cryptococcus neoformans = system: Cryptococcus neoformans
Penicillium expansum = system: Penicillium expansum
Escherichia coli SBS 363 = system: Escherichia coli SBS 363
Cladosporium sp. = system: Cladosporium sp.
[21] = system: Escherichia coli ATCC 25922
[22] = system: Acinetobacter baumannii BCRC 14B0100
[23] = system: Klebsiella pneumoniae ATCC 49472
[24] = system: Klebsiella pneumoniae ATCC BAA-2814
[25] = system: Escherichia coli ATCC 35218
[26] = system: Staphylococcus aureus ATCC 12600
[27] = system: Enterococcus faecalis ATCC 51299
[28] = system: Salmonella enterica subsp. enterica serovar Typhimurium ATCC 14028
[29] = system: Staphylococcus aureus ATCC BAA-2312

SMILES: CC[C@H](C)[C@H](NC(=O)CN)C(=O)N[C@@H](C)C(=O)NCC(=O)N[C@@H](CC(C)C)C(=O)N[C@@H](CC(C)C)C(=O)N[C@@H](CCCN=C(N)N)C(=O)N[C@@H](CO)C(=O)N[C@@H](Cc1ccccc1)C(=O)N[C@H](C(=O)N[C@@H](CCCN=C(N)N)C(=O)N[C@@H](CCSC)C(=O)N[C@@H](CC(C)C)C(=O)N[C@@H](C)C(=O)N[C@@H](CCCCN)C(=O)N[C@H](C(=O)N[C@@H](CCSC)C(=O)NCC(=O)NCC(=O)O)[C@@H](C)CC)C(C)C [GIAGLLRSFVRMLAKIMGG]
- MIC [10]: ≥ 32.2 µM
- MIC [11]: ≥ 32.2 µM
- MIC [1]: 32.2 µM (≈ 64 µg/mL)
- MIC [12]: ≥ 64.3 µM
- MIC [4]: 8.04 µM (≈ 16 µg/mL)
- MIC [13]: 32.2 µM (≈ 64 µg/mL)
- MIC [14]: 32.2 µM (≈ 64 µg/mL)

SMILES: CSCC[C@H](NC(=O)CNC(=O)[C@H](Cc1ccccc1)NC(=O)[C@H](Cc1ccccc1)NC(=O)CNC(=O)[C@H](C)NC(=O)[C@H](C)NC(=O)[C@@H]1CCCN1C(=O)[C@H](C)N)C(=O)N[C@@H](CCCN=C(N)N)C(=O)O [APAAGFFGMR]
- MIC (Micrococcus luteus A270): ≥ 164 µM
- MIC (Cryptococcus neoformans): ≥ 164 µM
- MIC (Penicillium expansum): ≥ 164 µM
- MIC (Escherichia coli SBS 363): ≥ 82 µM
- MIC [4]: 164 µM and > 82 µM
- MIC (Cladosporium sp.): ≥ 164 µM

SMILES: CC[C@H](C)[C@H](NC(=O)[C@H](CCCN=C(N)N)NC(=O)[C@H](CCC(N)=O)NC(=O)[C@@H](NC(=O)[C@@H](NC(=O)[C@H](CCCN=C(N)N)NC(=O)[C@H](CCCCN)NC(C)=O)[C@@H](C)CC)C(C)C)C(=O)N[C@@H](CCCCN)C(=O)N[C@@H](CC(=O)O)C(=O)N[C@@H](Cc1ccccc1)C(=O)N[C@@H](CC(C)C)C(=O)N[C@@H](CCCN=C(N)N)C(=O)N[C@@H](C)C(=O)NCC(=O)N1CCC[C@H]1C(=O)N[C@@H](CCCN=C(N)N)C(=O)N[C@@H](CCCN=C(N)N)C(=O)N[C@@H](Cc1c[nH]c2ccccc12)C(=O)N[C@@H](Cc1c[nH]c2ccccc12)C(=O)N[C@@H](CCCN=C(N)N)C(=O)N[C@@H](Cc1c[nH]c2ccccc12)C(N)=O [KRIVQRIKDFLRAGPRRWWRW]
- MIC [21]: 1.42 µM and 0.708 µM
- MIC [4]: 0.708 µM and 1.42 µM
- MIC [22]: 0.708 µM and 1.42 µM
- MIC [14]: 1.42 µM and 0.708 µM

SMILES: CC[C@H](C)[C@H](NC(=O)[C@H](CCC(N)=O)NC(=O)[C@H](CO)NC(=O)[C@H](C)NC(=O)[C@H](CC(C)C)NC(=O)[C@H](Cc1cnc[nH]1)NC(=O)[C@@H](NC(=O)[C@H](CC(C)C)NC(=O)[C@H](CC(C)C)NC(=O)CNC(=O)[C@H](CCCCN)NC(=O)CNC(=O)[C@H](C)NC(=O)CNC(=O)[C@H](CCCCN)NC(=O)[C@H](CC(C)C)NC(=O)[C@H](CC(C)C)NC(=O)[C@H](CC(=O)O)NC(=O)[C@H](CC(C)C)NC(=O)[C@H](CC(C)C)NC(=O)CN)[C@@H](C)O)C(N)=O [GLLDLLKGAGKGLLTHLASQI]
- MIC [23]: ≥ 125 µM
- MIC [24]: ≥ 125 µM
- MIC [25]: ≥ 62.5 µM
- MIC [26]: ≥ 250 µM
- MIC [27]: ≥ 250 µM
- MIC [28]: 250 µM (≈ 529 µg/mL)
- MIC [29]: ≥ 250 µM

More lines, main results first:

- MIC (Escherichia coli UB1005): 2 µM (≈ 3.49 µg/mL)
- MIC [1]: 4 µM (≈ 6.99 µg/mL)
- MIC [2]: 2 µM (≈ 3.49 µg/mL)
- MIC [3]: ≥ 64 µM
- MIC [4]: 4 µM (≈ 6.99 µg/mL)
- MIC [6]: ≥ 64 µM
- MIC [7]: ≥ 64 µM
- MIC [8]: ≥ 64 µM
- MIC [9]: ≥ 64 µM
SMILES: NC(=O)[C@H](CCCN=C(N)N)NC(=O)[C@H](CCCN=C(N)N)NC(=O)[C@H](Cc1c[nH]c2ccccc12)NC(=O)[C@H](CO)NC(=O)[C@H](Cc1c[nH]c2ccccc12)NC(=O)[C@H](Cc1c[nH]c2ccccc12)NC(=O)[C@H](Cc1c[nH]c2ccccc12)NC(=O)[C@H](CO)NC(=O)[C@H](Cc1c[nH]c2ccccc12)NC(=O)[C@H](CCCN=C(N)N)NC(=O)[C@@H](N)CCCN=C(N)N [RRWSWWWSWRR]
- MIC [5]: ≥ 64 µM

- MIC [15]: ≥ 33.5 µM
- MIC [16]: 8.38 µM (≈ 12.5 µg/mL)
- MIC [17]: ≥ 33.5 µM
- MIC [18]: 8.38 µM (≈ 12.5 µg/mL)
- MIC [19]: 8.38 µM (≈ 12.5 µg/mL)
- MIC [20]: 8.38 µM (≈ 12.5 µg/mL)
SMILES: CC[C@H](C)[C@H](NC(=O)[C@H](CCCCN)NC(=O)[C@@H](N)CCCN=C(N)N)C(=O)N[C@@H](CCCCN)C(=O)N[C@H](C(=O)N[C@@H](Cc1ccc(O)cc1)C(=O)N[C@@H](CC(C)C)C(=O)N[C@@H](CCCN=C(N)N)C(=O)N[C@@H](CCCN=C(N)N)C(=O)N[C@@H](CCSC)C(=O)N[C@@H](CCCCN)C(=O)O)C(C)C [RKIKVYLRRMK]
